The mortality is the share of the test organisms that died. Read a low mortality as more survivors. Usually melting point stands for the temperature, or range, at which the solid turns liquid.

From patent US6642234B1, “Acrylonitrile compounds” (Nissan Chemical Industries, Ltd., priority 1998, dated 2003) come the findings set out here.

Data set [1] has as its system two-spotted spider mites (Tetranychus urticae). Put plainly: Acaricidal test for two-spotted spider mites. In kind it is in vivo. Particulars: 500 ppm solution sprayed 2 ml/cup on larvae on kidney bean leaf discs; 25° C.; after 96 hours. The method, then: [Test Example 1] Acaricidal Test For Two-spotted Spider Mites (Tetranychus urticae)
The leaves of kidney bean plants were punched into 3.0 cm-diameter discs, using a leaf punch, and put onto moistured filter paper in a 7 cm-diameter styrol cup. Ten larvae of two-spotted spider mites (Tetranychus urticae) were put to each leaf. A 5% emulsion (or 25% wettable powder) of a compound of the invention was diluted with water containing a spreading agent to give a 500 ppm solution of the compound. The solution was sprayed over each cup in an amount of 2 ml/cup, using a rotary sprinkler, and the cups were stored in a thermostatic chamber at 25° C. After 96 hours passed, the mites in each cup were observed, and mortality of the mites was determined according to the following equation. Each compound was tested in that manner for two groups of dishes.
Mortality (%)=[number of insect killed/(number of insect killed+number of living insect)]×100

Data set [2] has as its system citrus red mite (Panonychus citri). Put plainly: Residual effect test for citrus red mite. Type of data set: in vivo. Particulars: Table 4, spray solution 100 ppm, 48 hours. As for the experimental part: Residual Effect Test for Citrus Red Mite (Panonychus citri)
A 5% emulsion (or 25% wettable powder) of a compound of the invention was diluted with water containing a spreading agent to give a solution of the compound with prescribed concentration. The solution was sprayed over each orange planted in a pot in an amount of 250 ml/pot, using a rotary sprinkler, and the pot were left in the open air. After the prescribed days, the leaves of orange plants were punched into 3.0 cm-diameter discs, using a leaf punch, and put onto moistured filter paper in a 7 cm-diameter styrol cup. Ten larvae of citrus red mite (Panonychus citri) were put to each leaf. Then, the cups were stored in a thermostatic chamber at 25° C. After 48 hours passed, the mites in each cup were observed, and mortality of the mites was determined according to the same equation as in Test Example 1. Each compound was tested in that manner for four groups of dishes.
In the test, the following Compound A described in WO97/40009 was used as a comparative compound. [drawing 35]

On to `COc1ccccc1-n1nc(C)c(C(C#N)=C(OC(=O)C(C)(C)C)c2c(Cl)c(C)nn2C)n1` (mixture of isomers) [compound 62], for which the mortality in data set [1] is recorded as no less than 80%.
As to `Cc1nn(-c2ccccc2)nc1/C(C#N)=C(\OC(=O)C(C)(C)C)c1c(C(F)(F)F)nn(C)c1Cl` [Compound A], the mortality at 100 ppm in data set [2] (2 days left in the open air after spraying) amounted to 17.5%; in data set [2] (4 days left in the open air after spraying) it was 40%.
`Cc1nc(C)c(C(O)=C(C#N)c2nn(-c3ccccc3)nc2C)s1` [Compound No. 20, 3-(2,4-Dimethylthiazol-5-yl)-3-hydroxy-2-(5-methyl-2-phenyl-1,2,3-triazol4-yl)acrylonitrile]: the melting point was 117 to 118 °C.
